According to patent EP1187837B1, “THIAZEPINE INHIBITORS OF HIV-1 INTEGRASE” (THE UNITED STATES GOVERNMENT as represented by THE …, priority 1999, dated 2000):
Values joined by “and” are separate entries in the source; they are usually repeats but may differ in a detail not shown here. Equal entries are not always repeated. Where two headings read alike, the source gives them in different places.

How the values were obtained:
[1] = biological target: T1, purified human immunodeficiency virus type-1 integrase (HIV-1 IN) (Human immunodeficiency virus type 1 group M subtype B, UniProt P12497); experiment: biochemical;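 further: enzyme at 200 nM preincubated with inhibitor 30 min at 30°C, then 20 nM labeled 21-mer DNA for 1 h, inhibition relative to enzyme without drug, background from DNA alone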
Description: (§1) The HPLC purified oligonucleotides AE117 (5'-[sequence]-3'); AE118 (5'-[sequence]-3'); AE157 (5'-[sequence]-3'); AE146 (5'-[sequence]-3'); AE156 (5'-[sequence]-3'); RM22M (5'-[sequence]-3'); and RMAB2 (5'-[sequence]-3') were purchased from Midland Certified Reagent Company (Midland, TX). An expression system for the wild-type integrase and the IN^50-212 (F185K) were obtained from the Laboratory of Molecular Biology, NIDDK, NIH, Bethesda, MD.
(§2) To analyze the extent of 3'-processing and strand transfer using 5'-end labeled substrates, AE118 was 5'-end labeled using T4 polynucleotide kinase (Gibco BRL) and γ[^32P]-ATP (Dupont-NEN). […] The kinase was heat-inactivated and AE117 was added to the same final concentration. The mixture was heated at 95°C, allowed to cool slowly to room temperature, and run through a G-25 Sephadex quick spin column (Boehringer Mannheim, Indianapolis, IN) to separate annealed double-stranded oligonucleotide from unincorporated label.
(§3) To determine the extent of 3'-processing and strand transfer, integrase was preincubated at a final concentration of 200 nM with the inhibitor in a reaction buffer (50 mM NaCl, 1 mM HEPES, pH 7.5, 50 µM EDTA, 50 µM dithiothreitol, 10% glycerol (w/v), 7.5 mM MnCl2, 0.1 mg/ml bovine serum albumin, 10 mM 2-mercaptoethanol, 10% dimethyl sulfoxide, and 25 mM MOPS, pH 7.2) at 30°C for 30 minutes. Then, 20 nM of the 5'-end ^32P-labeled linear oligonucleotide substrate was added, and incubation was continued for an additional one hour. Reactions were quenched by the addition of an equal volume (16 µl) of loading dye (98% deionized formamide, 10 mM EDTA, 0.025% xylene cyanol and 0.025% bromophenol blue). An aliquot (5 µl) was electrophoresed on a denaturing 20% polyacrylamide gel (0.09 M tris-borate pH 8.3, 2 mM EDTA, 20% acrylamide, 8M urea).
(§4) Gels were dried, exposed in a PhosphorImager cassette, and analyzed using a Molecular Dynamics PhosphorImager (Sunnyvale, CA). Percent inhibition was calculated using the following equation: %I = 100 X [1-(D-C)/(N-C)] [formula] where C, N, and D are the fractions of 21-mer substrate converted to 19-mer (3'-processing product) or strand transfer products for DNA alone (C), DNA plus integrase (N), and integrase plus drug (D). All IC50 values were determined by plotting the drug concentration versus percent inhibition, and determining the concentration which produced 50% inhibition.

[2] = biological target: T1, purified human immunodeficiency virus type-1 integrase (HIV-1 IN); experiment: Integrase assay: 3'-processing and strand transfer (3'-end joining), 32P-labeled oligonucleotide, gel/PhosphorImager, Mn2+ cofactor; conditions: purified IN 200 nM, 7.5 mM MnCl2, 30°C;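 further: enzyme at 200 nM preincubated with inhibitor 30 min at 30°C, then 20 nM labeled 21-mer DNA for 1 h, inhibition relative to enzyme without drug, background from DNA alone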
Description: as §1, §2, §3, §4

HIV-1 infected CEM cells = experiment: Anti-HIV assay in cultured CEM cells (NCI Antiviral Drug Screen, XTT formazan); format: cell-based
Description: (§5) The anti-HIV drug testing was performed at NCI based on a protocol described by Weislow et al.^36 All compounds were dissolved in dimethyl sulfoxide and diluted 1:100 in cell culture medium. Exponentially growing T4 lymphocytes (CEM cell line) were added at 5000 cells per well. Frozen virus stock solutions were thawed immediately before use, suspended in complete medium to yield the desired multiplicity of infection (m. o. i. ≈ 0.1), and added to the microtiter wells, resulting in a 1:200 final dilution of the compound. Uninfected cells with the compound served as a toxicity control, and infected and uninfected cells without the compound served as basic controls.
(§6) Cultures were incubated at 37°C in a 5% CO2 atmosphere for 6 days. The tetrazolium salt, XTT was added to all wells, and cultures were incubated to allow formazan color development by viable cells. Individual wells were analyzed spectrophotometrically to quantitate formazan production, and in addition were viewed microscopically for detection of viable cells and confirmation of protective activity.

[3] = biological target: T1, purified human immunodeficiency virus type-1 integrase (HIV-1 IN)
Description: as §1, §2, §3, §4

[4] = Cytotoxicity control in uninfected CEM cells (XTT formazan); format: cell-based; conditions: human, read-out: Cell data (µM) CC50: 50% cytotoxic concentration; for CC50 at 144 h: 6 days; for CC50 at 6 days: uninfected T4 lymphocytes (CEM cell line)
Description: as §5, §6

HIV-1 IN = biological target: T2, HIV-1 IN (Human immunodeficiency virus type 1 group M subtype B, UniProt P12497); experiment: Integrase assay with Mg+2 as cofactor; format: biochemical; conditions: compared with Mn+2
T2 construct: An expression system for the wild-type integrase; made in house
Description: A 21-mer oligonucleotide corresponding to the last 21 bases on the HIV-1 viral DNA in the U5 region of long terminal repeat (LTR) was radiolabeled with ^32P. This is shown in the Figs. 2 and 3 as a band corresponding to DNA alone. Integrase will cleave the last two bases of this DNA in the presence of Mn^+2 or Mg^+2 to give a 19-mer DNA substrate (lane 2) which runs faster on the gel and is indicated as 19-mer on the Figures. When an inhibitor is added this process is blocked, therefore the original 21-mer DNA would not be cut. When an inhibitor is added at various concentrations, percent inhibition at every concentration will be calculated by quantification of the intensity of each band using an Imagequant program.
The gels are run using polyacrylamide according to the standard procedures. Upon completion of electrophoresis run, the gels are dried and exposed to a phosphorimager cassette. The cassettes are analyzed by the phosphorimager, and the bands are shown on a computer screen. The intensity of each band is quantitated, plotted against concentrations of drugs, and the IC50 values are calculated from the graphs.

[5] = Integrase Assay IC50 (µM) 3'-Processing
[6] = Human immunodeficiency virus 1, CCRF-CEM, 144 h, read-out: Cell data (µM) EC60: 50% effective concentration, HIV-1 infected CEM cells, 6 days, XTT
[7] = read-out: Integrase Assay IC50 (µM) 3'-Processing
[8] = Human immunodeficiency virus 1, CCRF-CEM, 144 h, HIV-1 infected CEM cells, 6 days, XTT, read-out: Cell data (µM) EC60: 50% effective concentration

Row | SMILES | IC50 [1] | IC50 [2, 5] | EC50 (HIV-1 infected CEM cells; [6]) | also measured
1 | O=C1c2ccccc2SC(O)(c2ccccc2)C2CCCN12 (racemic) [Compound 26, (±)-2,3,11,11a-Tetrahydro-11-hydroxy-11-phenyl-1H,5H-pyrrolo [2,1-c][1,4]benzothiazepin-5-one] | > 1000 µM | > 1000 µM | – | –
2 | CC(=O)OC1Sc2ccccc2C(=O)N2CCCC12 (centres unmarked) [Compound 21] | – | – | > 200 µM | IC50 [2, 7]: > 1000 µM; IC50 [3]: > 1000 µM
3 | O=C1Sc2ccccc2C(=O)N2CCCCC12 (centres unmarked) [Compound 14] | – | – | > 200 µM | –
4 | CCOC(=O)C1Sc2ccccc2Cn2cccc21 (centres unmarked) [Compound 29] | > 1000 µM | > 1000 µM | – | –
5 | O=C1Sc2ccccc2Cn2cccc21 [Compound 28] | – | – | 146 µM | CC50 at 144 h [4]: > 200 µM
6 | COc1cc2c(cc1OC)C(=O)N1CCCC1C(=O)S2 (centres unmarked) [Compound 13] | – | – | > 200 µM | IC50 [2, 7]: > 1000 µM; IC50 [3]: > 1000 µM
7 | O=C1Sc2cc3ccccc3cc2C(=O)N2CSCC12 (racemic) [Compound 20, (±)-1,13a-Dihydro-3H,5H,11H-naphto[2,3-f]thiazolo[4,3-c][1,4] thiazepine-5,13-dione] | – | – | 279 to 286 µM | inhibition of IN in the presence of Mg+2 (HIV-1 IN): active in the presence of Mg^+2 within the same concentration range as in Mn^+2
8 | COc1cc2c(cc1OC)C(=O)N1CCCC1CS2 (centres unmarked) [Compound 24] | – | – | > 200 µM | IC50 [2, 7]: > 1000 µM; IC50 [3]: > 1000 µM
9 | Cc1ccc2c(c1)C(=O)N1CC[S@@+]([O-])[C@@H]1C(=O)S2 (racemic) [Compound 15, (±)-cis-2,3-Dihydro-7-methyl-5H-thiazolo[2,3-c][1,4]benzothiazepme-5,11 (11aH)-dione 1-Oxide] | – | – | > 100 µM | CC50 at 144 h [4]: > 100 µM
10 | Cc1ccc2c(c1)C(=O)N1CSCC1C(=O)S2 (racemic) [Compound 8, (±)-1,11a-Dihydro-7-methyl-3H,5H,11H-thiazolo[4,3-c][1,4] benzothiazepine-5,11-dione] | 63 µM | 52 µM | – | CC50 at 6 days [4]: 35 µM
11 | COc1cc2c(cc1OC)C(=O)N1CSCC1C(=O)S2 (centres unmarked) [Compound 11] | – | – | > 50 µM | –
12 | O=C1Sc2ccc(Cl)cc2C(=O)N2CSCC12 (racemic) [Compound 6, (±)-7-Chloro-1,11a-dihydro-3H,5H,11H-thiazolo[4,3-c][1,4] benzothiazepine-5,11-dione] | 160 µM and 110 µM | 158 µM and 111 µM | – | CC50 at 6 days [4]: > 100 µM; EC50 (HIV-1 infected CEM cells; [8]): > 100 µM
13 | O=C1Sc2ccccc2C(=O)N2CSCC12 (racemic) [Compound 5] | – | – | > 200 µM | –
14 | O=C1Sc2ccccc2C(=O)N2CCSC12 (centres unmarked) [Compound 1] | – | – | 107 ± 26 µM | EC50 (HIV-1 infected CEM cells; HIV-1 infected CEM cells, 6 days, XTT, read-out: Cell data (µM) EC60: 50% effective concentration): 107 µM; inhibition of IN in the presence of Mg+2 (HIV-1 IN): active in the presence of Mg^+2 within the same concentration range as in Mn^+2
15 | COC1Sc2ccccc2C(=O)N2CCCC12 (centres unmarked) [Compound 22] | > 1000 µM | > 1000 µM | > 200 µM | CC50 at 144 h [4]: > 200 µM
16 | O=C1Sc2cc([N+](=O)[O-])ccc2C(=O)N2CSCC12 (racemic) [Compound 9, (±)-1,11a-Dihydro-8-nitro-3H,5H,11H-thiazolo[4,3-c][1,4] benzothiazepine-5,11-dione] | 100 ± 36 µM | 90 ± 27 µM | – | CC50 at 6 days [4]: > 50 µM; EC50 (HIV-1 infected CEM cells; [8]): > 50 µM
17 | O=C1c2ccccc2SC(O)C2CCCN12 (centres unmarked) [Compound 25] | – | – | > 200 µM | IC50 [2, 7]: > 1000 µM; IC50 [3]: > 1000 µM
18 | CN1CCN([C@@H]2Sc3ccccc3C(=O)N3CCC[C@@H]23)CC1 (racemic) [Compound 27, (±)-cis-2,3,11,11a-Tetrahydro-11-(4-methylpiperazin-1-yl)-1H,5H-pyrrolo[2,1-c][1,4]benzothiazepin-5-one] | > 1000 µM | > 1000 µM | – | CC50 at 6 days [4]: > 125 µM; EC50 (HIV-1 infected CEM cells; [8]): > 125 µM
19 | O=C1Sc2ccc(Br)cc2C(=O)N2CCSC12 (racemic) [Compound 3, (±)-7-Bromo-2,3-dihydro-5H-thiazolo[2,3-c][1,4]benzothiazepine-5,11 (11aH)-dione] | 48 ± 18 µM | 58 ± 15 µM | – | –
20 | O=C1c2ccccc2SCC2CSC(c3ccccc3)N12 (centres unmarked) [Compound 23] | 288 µM | 111 µM | – | –
21 | CN(C)Cc1ccc2n1Cc1ccccc1SC2c1ccc(F)cc1 (centres unmarked) [Compound 30] | > 1000 µM | > 1000 µM | – | –
22 | O=C1Sc2ccc(Cl)cc2C(=O)N2CCSC12 (racemic) [Compound 2, (±)-7-Chloro-2,3-dihydro-5H-thiazolo[2,3-c][1,4]benzothiazepine-5,11 (11aH)-dione] | 120 µM and 60 µM | 151 µM and 105 µM | – | CC50 at 6 days [4]: > 50 µM; EC50 (HIV-1 infected CEM cells; [8]): > 50 µM
23 | CN1CCN(Cc2ccc3n2Cc2ccccc2SC3c2ccccc2)CC1 (racemic) [Compound 31, (±)-3-[(4-Methylpiperazin-1-yl)methyl]-11-phenyl-5H,11H-pyrrolo [2,1-c][1,4]benzothiazepine] | > 1000 µM | > 1000 µM | – | –
24 | COc1ccc2c(c1)C(=O)N1CSCC1C(=O)S2 (racemic) [Compound 10, (±)-1,11a-dihydro-7-methoxy-3H,5H,11H-thiazolo[4,3-c][1,4]benzothiazepine-5,11-dione] | 155 µM and 245 µM | 155 µM and 275 µM | – | CC50 at 6 days [4]: > 200 µM; EC50 (HIV-1 infected CEM cells; [8]): > 200 µM
25 | O=C1Sc2cc3ccccc3cc2C(=O)N2CCSC12 (racemic) [Compound 19, (±)-2,3-Dihydro-5H-naphto[2,3-f]thiazolo[2,3-c][1,4]thiazepine-5,13(13aH)-dione] | – | – | 60 µM | inhibition of IN in the presence of Mg+2 (HIV-1 IN): active in the presence of Mg^+2 within the same concentration range as in Mn^+2
26 | O=C1Sc2ccc(Br)cc2C(=O)N2CSCC12 (racemic) [Compound 7, (±)-7-Bromo-1,11a-dihydro-3H,5H,11H-thiazolo[4,3-c][1,4] benzothiazepine-5,11-dione] | 74 ± 32 µM | 87 ± 24 µM | – | CC50 at 6 days [4]: > 200 µM; EC50 (HIV-1 infected CEM cells; [8]): > 200 µM
27 | O=C1Sc2ccccc2C(=O)N2COCC12 (racemic) [Compound 12, (±)-1,11a-Dihydro-3H,5H,11H-oxazolo[4,3-c][1,4]benzothiazepine-5,11-dione] | > 333 µM | > 333 µM | – | –
